Test results as given in patent publication US20230189803A1, “COMPOSITIONS CONTAINING ORGANIC ACIDS AND THEIR ESTERS TO PREVENT MOLD CONTAMINATION IN ANIMAL FEED” (KEMIN INDUSTRIES, INC., priority 2021, published 2023).

How the values were obtained:
Assay type in all cases: cell-based
[1] = tested on: mold; assay: CO2 study in barley samples, propylene glycol esters compared with other esters (Example 10); settings: barley 19.8% moisture, 0.02-0.08 mol/kg, molar basis
Description: Materials. The moisture level of barley samples was increased till 20.2%. [table] Statistical analysis. To determine significant differences in CO2-values (p<0.05), repeated measures analysis was performed by method of General Linear Models procedure (StatGraphics Centurion XV). The repeated measures statistical treatment of results was used because it can be used when change over time is assessed. Where significant differences resulted, Multiple Range Test was used to separate the means.

[2] = tested on: mold; assay: CO2 study in barley samples, dose response of propionic acid esters as mold inhibitors (Example 9); settings: barley 20.2% moisture
Description: Materials. Barley was procured from a local supplier.
Efficacy. The moisture level of barley was determined before the start of the experiments4. The moisture level of the barley samples was adjusted to 20.2+/−0.5% by the addition of tap water. The barley samples, with the adjusted moisture content, were afterwards treated with the different extracted esters at different dose levels (0.02 mol/kg, 0.04 mol/kg, 0.06 mol/kg and 0.08 mol/kg). The untreated barley samples and samples treated with propionic acid (0.02 mol/kg-0.08 mol/kg) were included as controls. All barley samples were collected in closed plastic containers for evaluation of the CO2-production. The samples were stored at 25° C. The CO2-production in the headspace was monitored regularly during a 3-month period using the Edinburgh sensor Guardian NG. Three replicates were analyzed for each treatment.
Statistical analysis. To determine significant differences in CO2-values values (p<0.05), repeated measures analysis was performed by method of General Linear Models procedure (StatGraphics Centurion XV). The repeated measures statistical treatment of results was used because it can be used when change over time is assessed. Where significant differences resulted, Multiple Range Test was used to separate the means.

[3] = tested on: mold; assay: CO2 study in soybean meal samples (Example 13); settings: 0.06 mol/kg, after one month of storage
Description: Efficacy on soybean meal. FIGS. 18 and 19 show the CO2 production (%) of the untreated soybean meal samples compared to the soybean meal samples treated with ester 1 and propionic acid at a dosage of 0.06 and 0.08 mol/kg, respectively. In the untreated samples, a fast increase in CO2 level was measured within the first days and the CO2 value stayed around 20% during the whole course of the trial. […] Samples treated with ester 1 and propionic acid at a dosage of 0.08 mol/kg were still completely stable after 84 days.

With `CC(=O)O` [acetic acid] the “efficacy in controlling mold growth (CO2 evolution), comparative” value [1] was “less effective in controlling mold growth compared to propionic acid”.
`CCC(=O)O` [propionic acid] was tested, and the “CO2 increase compared to the esters” value ([2]; 0.06 mol/kg) was “CO2 increased faster”, the “storage time for which samples stay stable / after which CO2 starts increasing” value ([2]; 0.08 mol/kg) was 40 days and the “CO2 levels during storage” value [3] was “CO2 levels started to increase”.
